Laboratory results published in patent US20040127492A1 (Pharmacia Corporation, priority 2002, published 2004).
Where two headings read alike, the source gives them in different places.

How the values were obtained:
MK-3 = MK-3 (Homo sapiens, UniProt Q16644); test: MK-3 inhibition IC50 (similar method to MK-2, with appropriate modifications); format: biochemical; conditions: read-out: MK-3 Avg. IC50
MAPKAPK2 (MK-2) = MAPKAPK2 (MK-2) (Homo sapiens, UniProt P49137); test: Determination of MK-2 IC50 (HSP-peptide phosphorylation, anion exchange resin capture assay); format: biochemical
Sequence of MAPKAPK2 (MK-2) (P49137 whole entry, species assumed): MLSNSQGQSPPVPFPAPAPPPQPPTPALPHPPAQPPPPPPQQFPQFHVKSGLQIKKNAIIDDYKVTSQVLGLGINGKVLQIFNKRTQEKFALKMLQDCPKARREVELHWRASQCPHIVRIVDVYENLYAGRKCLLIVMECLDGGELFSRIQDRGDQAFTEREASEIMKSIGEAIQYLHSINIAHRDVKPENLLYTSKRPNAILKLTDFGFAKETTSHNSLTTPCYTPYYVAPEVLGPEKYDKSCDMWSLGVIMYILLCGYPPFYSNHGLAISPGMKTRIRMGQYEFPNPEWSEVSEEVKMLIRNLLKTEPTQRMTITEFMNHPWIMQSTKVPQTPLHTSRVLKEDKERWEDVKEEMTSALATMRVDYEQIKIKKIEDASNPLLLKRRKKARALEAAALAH
Method in brief: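 MAPKAPK2, preactivated by p38α with 0.25 mM ATP for 1 h at 30° C, used at 15 nM to phosphorylate HSP-peptide with 0.03 mM ATP plus [γ33P]ATP, pH 7.5, 2% DMSO, 30 min at 30° C. Labelled peptide counted after anion-exchange resin capture; IC50 from six ten-fold dilutions, triplicate.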

endotoxin-induced shock = conditions: murine model of endotoxin-induced shock; cited from earlier work
[1] = tested on: collagen-induced arthritis; conditions: mouse collagen-induced arthritis; cited from earlier work
adjuvant arthritis = conditions: rat adjuvant arthritis; cited from earlier work
granulomas = conditions: laboratory rats; cited from earlier work
[2] = Table 1, phenoxypyrazole MK-2 inhibitors
[3] = Table 1, phenoxypyrazole MK-2 inhibitors, read-out: MK-2 Avg, IC50

Sequence of MK-3 (Q16644 whole entry, species assumed): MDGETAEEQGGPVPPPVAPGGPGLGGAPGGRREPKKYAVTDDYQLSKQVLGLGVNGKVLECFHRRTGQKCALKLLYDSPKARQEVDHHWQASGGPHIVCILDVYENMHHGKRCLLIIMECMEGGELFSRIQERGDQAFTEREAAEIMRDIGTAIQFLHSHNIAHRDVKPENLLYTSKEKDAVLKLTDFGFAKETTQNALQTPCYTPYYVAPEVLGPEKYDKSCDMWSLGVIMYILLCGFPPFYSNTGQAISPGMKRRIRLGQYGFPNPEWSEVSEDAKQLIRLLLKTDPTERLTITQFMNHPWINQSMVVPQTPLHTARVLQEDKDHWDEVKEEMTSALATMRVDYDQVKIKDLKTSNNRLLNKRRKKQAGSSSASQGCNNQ

| Structure (SMILES) | IC50 (MK-3; [2]) | IC50 (MAPKAPK2 (MK-2); [3]) | also measured |
| --- | --- | --- | --- |
| COc1cc2c(cc1OC)-c1n[nH]c(C(=O)O)c1CC2 [Example 173] | > 200 µM | > 200 µM | – |
| CCOC(=O)c1nn(-c2ccc(S(N)(=O)=O)cc2)c2c1CCc1cc(OC)c(OC)cc1-2 [Example 174] | > 200 µM | > 200 µM | – |
| COc1cc2c(cc1OC)-c1c(c(C(N)=O)nn1-c1ccc(S(N)(=O)=O)cc1)CC2 [Example 175] | > 200 µM | > 200 µM | – |
| CCOC(=O)c1nn(-c2ccc(S(N)(=O)=O)cc2)c2c1CCc1cc(O)ccc1-2 [Example 176] | > 200 µM | > 200 µM | – |
| COc1cc2c(cc1OC)-c1n[nH]c(C(=O)NNc3ccc(S(N)(=O)=O)cc3)c1CC2 [Example 177] | > 200 µM | > 200 µM | – |
| CCOC(=O)c1nn(-c2ccc(S(N)(=O)=O)cc2)c2c1CCc1cc(OC)ccc1-2 [Example 178] | > 200 µM | > 200 µM | – |
| O=C1NCC(CCCNCCc2ccc(Cl)cc2)n2nc3c(c21)CCc1cnccc1-3 (stereo not shown) [Example 178] | – | – | IC50 (MK-3): 40.4 µM; IC50 (MAPKAPK2 (MK-2); read-out: MK-2 Avg. IC50): 16.1 µM |
| COc1ccc2c(c1)CCc1c(C(N)=O)nn(-c3ccc(S(N)(=O)=O)cc3)c1-2 [Example 179] | > 200 µM | > 200 µM | – |
| COc1ccc2c(c1)CCc1c-2n[nH]c1C(=O)NN [Example 180] | > 200 µM | > 200 µM | – |
| COC(=O)c1[nH]nc2c1CCc1cc(O)ccc1-2 [Example 181] | > 200 µM | > 200 µM | – |
| COC(=O)c1[nH]nc2c1CCc1cc(OC)ccc1-2 [Example 182] | > 200 µM | > 200 µM | – |
| COC(=O)c1[nH]nc2c1CCc1cc(OC)c(Br)cc1-2 [Example 183] | > 200 µM | > 200 µM | – |
| COC(=O)c1c2c(nn1CCCNC(=O)OC(C)(C)C)-c1cc(Br)c(OC)cc1CC2 [Example 184] | > 200 µM | > 200 µM | – |
| COC(=O)c1c2c(nn1CCNC(=O)OC(C)(C)C)-c1cc(Br)c(OC)cc1CC2 [Example 185] | > 200 µM | > 200 µM | – |
| COC(=O)c1c2c(nn1CCCNC(=O)OC(C)(C)C)-c1ccc(OC)cc1CC2 [Example 186] | > 200 µM | > 200 µM | – |
| O=C1NCCn2nc3c(c21)CCc1cnc(N2CCSCC2)cc1-3 [Example 203] | – | – | IC50 (MK-3): 3.3 µM; IC50 (MAPKAPK2 (MK-2); read-out: MK-2 Avg. IC50): 35.6 µM |
| N#CC(N)CCn1nc2c(c1C(=O)O)CCc1cnccc1-2 (stereo not shown) [Example 207] | – | – | IC50 (MK-3): 186 µM; IC50 (MAPKAPK2 (MK-2); read-out: MK-2 Avg. IC50): 36.9 µM |
| CN1CCN(c2cc3c(cn2)CCc2c-3nn3c2C(=O)NCC3)CC1 [Example 245] | – | – | IC50 (MK-3): 108 µM; IC50 (MAPKAPK2 (MK-2); read-out: MK-2 Avg. IC50): 96.8 µM |
| C[S+]([O-])c1ccc(-c2nc(-c3ccncc3)c(-c3ccc(F)cc3)[nH]2)cc1 (stereo not shown) [SB203580] | – | – | mortality (endotoxin-induced shock): reduce mortality; development of arthritis [1]: inhibit the development; development of arthritis (adjuvant arthritis): inhibit the development |
| Nc1nccc(-c2c(-c3ccc(F)cc3)ncn2C2CCNCC2)n1 [SB 220025] | – | – | vascular density of granulomas (granulomas): significant dose-dependent decrease |
